Test results from US7744927B2, “Methods of promoting hematopoietic and mesenchymal cell proliferation and differentiation” (University of Southern California, priority 1997, dated 2010).

Legend:
murine HPC = assay: Murine HPC colony formation in semi-solid culture with colony stimulating factors; assay type: cell-based, C57B1/6 mice; conditions: for macroscopic colonies: day 14, enriched HPC from untreated (normal) mice
Experimental: HPC were harvested from C57B1/6 mice by immunomagnetic affinity chromatography and placed in semi-solid cultures with optimal growth medium. At various times after initiation of culture, the formation of colonies and the size of the colonies (number of cells/colony) was assessed microscopically.
Female C57B1/6 mice were purchased from Simonson and used as a source of bone marrow cells in this study. The bone marrow was harvested, either from untreated mice or from mice injected with 5-fluorouracil (5-FU) (3 mg/mouse; approximately 150 mg/kg) in the tail vein 48 hours before harvest, from the femur and tibia of mice by flushing with phosphate buffered saline (PBS), pH 7.4, containing 2% fetal bovine serum (FBS) with a 21-gauge needle. The eluant from the flushing was centrifuged and the pellet was resuspended at 4×10^7 nucleated cells/ml in PBS containing PBS containing 2% FBS and 5% normal rat serum.
The reagents for immunomagnetic labeling were purchased from Stem Cell Technologies, Inc. (Vancouver, BC). Biotin-labeled monoclonal antibodies to the following murine lineage-specific cell surface antigens were included in a cocktail for HPC enrichment and used according to the manufacturer's instructions: CD5 (Ly-1), CD45-R (B220), CD11b (Mac-1), Myeloid Differentiation Antigen (Gr-1) and Erythroid Cells (TER 119) Ten μl of antibody cocktail was added for each of the 2 sets of bone marrow (normal and 5-FU-treated), mixed and allowed to incubate at 4° C. for 15 minutes. The cells were then resuspended at 4×10^7 cells/ml in PBS containing 2% FBS. The antibody cocktail was then washed out and 100 μl anti-biotin tetramer was added for each ml of cells. The suspension was mixed and incubated at 4° C. for 15 minutes. Sixty μl of magnetic colloid was then added for each ml of cells, the combination was mixed and incubated at 4° C. for 15 minutes to yield the immunomagnetically-labeled bone marrow cells.
A column containing a stainless steel matrix was prepared by washing the matrix with PBS followed by washing with PBS containing 2% protein. […]

[1] = tested on: murine peritoneal macrophages; assay: Respiratory burst (hydrogen peroxide generation), murine peritoneal macrophages; assay type: cell-based; conditions: alone and in response to PMA 10 ng/ml; 4 hours exposure
Experimental: The respiratory burst of leukocytes (macrophages and polymorphonuclear neutrophils) is one component of the mediator system used to kill bacteria. As with phagocytosis, the level of this respiratory burst activity in resident macrophages is low. […] Studies were conducted to assess the effect of in vitro exposure of murine or rat peritoneal macrophages and human peripheral blood mononuclear cells (PBMC) to various concentrations of AII on the capacity to generate hydrogen peroxide via the respiratory burst system. For the human studies, five different donors were examined.
The murine or rat peritoneal cells were harvested by lavage with 5-15 ml of cold PBS with 0.5% bovine serum albumin. The human PBMC were harvested by venipuncture from normal human volunteers and isolated from peripheral blood by Ficoll Hypaque density centrifugation. After isolation, the cells were resuspended at 1×10^6 cells/ml and placed at 100 μl per well into 96 well plates. The cells were incubated with various concentrations of AII or AII analogues for 4 hours at 37° C. The cells were then preloaded with a fluorescent probe for hydrogen peroxide, 2,7 dichlorofluorescein acetate, which is nonfluorescent in the absence of hydrogen peroxide. […] One hour after stimulation the level of fluorescence produced was measured on a Cytofluor 2350 multiwell fluorometer.

Human PBMC = assay: Proliferation of human PBMC, 3H-thymidine incorporation with or without pokeweed mitogen; assay type: cell-based; conditions: for Stimulation Index (SI): stimulated counts / counts without mitogen
Experimental: Upon stimulation of lymphocytes with mitogen or antigen, these cells undergo blastogenesis and proliferation. In the absence of such stimuli, proliferation is seldom observed. One method to measure cellular proliferation in a short term assay is via measurement of the amount of the nucleotide thymidine that is incorporated into newly synthesized DNA. The effect of AII on the proliferation of human PBMC in the presence and absence of pokeweed mitogen (“PWM”) was assessed.
Human PBMC were collected from normal volunteers and isolated via Ficoll Hypaque (Sigma Chemical, St. Louis) density centrifugation. After isolation of the buffy coat, the cells were washed 3× to remove the Ficoll Hypaque, counted in trypan blue (0.01%) and resuspended at a concentration of 1×10^6 cells/ml in RPMI 1640 containing 10% fetal calf serum and antibiotics. A 100 μl aliquot of cells was added to each well. Thereafter, various concentrations (0.1 to 1000 μg/ml final concentration) of AII in RPMI 1640 containing 10% FCS and antibiotics were added to various wells in triplicate. To the appropriate wells, PWM (20 μg/ml final concentration) was added. These plates were incubated at 37° C. in 5% CO2 for 48 hours. Subsequently, 0.5 μCi of ^3H-thymidine was added to each well, which were incubated at 37° C. for an additional 24 hours prior to harvest by a multiwell automated sample harvester (Skatron) onto glass fiber filters. These filters were dried, placed in scintillation fluid and the amount of thymidine incorporated was determined by beta counting.

[2] = tested on: chick chorioallantoic membrane; conditions: in vivo; cited from earlier work

## Asp-Arg-Val-Tyr-Ile-His-Pro-Phe [AII, known pressor agent, commercially available]
Murine HPC; 0 to 100 μg/ml, normal and 5-FU treated bone marrow
  HPC colony size / HPC proliferation: HPC colony size increases proportionately
Murine HPC; 10 μg/ml
  macroscopic colonies: 18
Murine HPC; 100 μg/ml
  macroscopic colonies: 10
[1]
  ability to generate hydrogen peroxide (respiratory burst): increased the ability of leukocytes to generate hydrogen peroxide
Human PBMC; AII Concentration 0.1, Experiment 1 (donor 1)
  Stimulation Index (SI): 3.54
Human PBMC; AII Concentration 0.1, Experiment 2 (donor 2)
  Stimulation Index (SI): 38.13
Human PBMC; AII Concentration 0.1, PWM, Experiment 1 (donor 1)
  cpm 3H-Thymidine Incorporated: 1329.0 cpm
Human PBMC; AII Concentration 0.1, PWM, Experiment 2 (donor 2)
  cpm 3H-Thymidine Incorporated: 2135.0 cpm
Human PBMC; AII Concentration 1, Experiment 1 (donor 1)
  Stimulation Index (SI): 5.88
Human PBMC; AII Concentration 1, Experiment 2 (donor 2)
  Stimulation Index (SI): 62.42
Human PBMC; AII Concentration 1, PWM, Experiment 1 (donor 1)
  cpm 3H-Thymidine Incorporated: 1411.2 cpm
Human PBMC; AII Concentration 1, PWM, Experiment 2 (donor 2)
  cpm 3H-Thymidine Incorporated: 2996.0 cpm
Human PBMC; AII Concentration 10, Experiment 1 (donor 1)
  Stimulation Index (SI): 5.34
Human PBMC; AII Concentration 10, Experiment 2 (donor 2)
  Stimulation Index (SI): 75.88
Human PBMC; AII Concentration 10, PWM, Experiment 1 (donor 1)
  cpm 3H-Thymidine Incorporated: 1427.0 cpm
Human PBMC; AII Concentration 10, PWM, Experiment 2 (donor 2)
  cpm 3H-Thymidine Incorporated: 3946.0 cpm
Human PBMC; AII Concentration 100, Experiment 1 (donor 1)
  Stimulation Index (SI): 11.41
Human PBMC; AII Concentration 100, Experiment 2 (donor 2)
  Stimulation Index (SI): 69.39
Human PBMC; AII Concentration 100, PWM, Experiment 1 (donor 1)
  cpm 3H-Thymidine Incorporated: 1552.1 cpm
Human PBMC; AII Concentration 100, PWM, Experiment 2 (donor 2)
  cpm 3H-Thymidine Incorporated: 3747.0 cpm
Human PBMC; AII Concentration 1000, Experiment 1 (donor 1)
  Stimulation Index (SI): 15.48
Human PBMC; AII Concentration 1000, Experiment 2 (donor 2)
  Stimulation Index (SI): 89.63
Human PBMC; AII Concentration 1000, PWM, Experiment 1 (donor 1)
  cpm 3H-Thymidine Incorporated: 1551.5 cpm
Human PBMC; AII Concentration 1000, PWM, Experiment 2 (donor 2)
  cpm 3H-Thymidine Incorporated: 4302.0 cpm
Human PBMC; PWM 20 μg/ml, two donors
  thymidine incorporated in response to PWM: increase the amount of thymidine incorporated
Human PBMC; absence of mitogen
  thymidine incorporation: no increase in thymidine incorporation
[2]
  angiogenic activity: angiogenic
